Results taken from patent EP0542807B1, “USE OF 2-PHENYL-1,2-BENZISOSELENAZOL-3(2H)-ONE” (RHONE-POULENC RORER GMBH, priority 1990, dated 1992).

Assays:
[1] = Acute toxicity (LD0) in mice; assay type: in vivo; conditions: acute investigations
Method: (§1) Since, in contrast to the previously known and applied selenium compounds, Ebselen is low in toxicity (LD0 > 1000 mg/kg body weight in acute investigations in mice and rats) and the maximum doses to be administered lie greatly below this value, administration to patients can be regarded as being without danger.

[2] = Acute toxicity (LD0) in rats; assay type: in vivo; conditions: acute investigations
Method: as §1

[3] = test system: LLC-PK1 cells; experiment: In-vitro toxicity of cisplatin in LLC-PK1 cells (LDH-leakage, protein remaining attached to the culture plate); assay type: cell-based, porcine
Method: LLC-PK1 are porcine kidney cells which express many characteristics of proximal tubule epithelium. […] In this cell line the LDH-leakage can be used as criterium for cell toxicity.
Cells were seeded in 24 well culture dishes ([…]) and allowed to grow to confluence (2.4 x 10^5 cell/cm^2) over 8 days in serum containing 5 % fetal calf serum. The cells were then maintained in serum-free medium for 2 days before drug treatment. Only monolayers in which dome formation occurred were used for the experiments.
Ebselen was dissolved in 2% dimethylsulfoxide in the sterile salt solution.
After incubation, the monolayers were washed 3 times with physiological saline to remove residual drug. Subsequently, the cells were grown in medium containing 5% fetal calf serum. Cell viability was assessed at different timepoints. In control experiments, monolayers were exposed to the vehicle in stead of drugs.
In control experiments, ebselen was replaced by the vehicle.

[4] = Cisplatin-induced nephrotoxicity in mice (kidney function: BUN, serum creatinine); assay type: in vivo, BALB/c mice; conditions: for Effect on cisplatin-induced increase of BUN and serum creatinine: Day 4
Method: (§2) Laboratory Animals. Female BALB/c mice were obtained from the Central Institute for the Breeding of Laboratory Animals/Harlan Sprague-Dawley (CPB/HSD), Zeist, The Netherlands. The mice were 8 weeks of age and weighed 18-20 g at the start of the experiments. All animals were provided with standard laboratory food (SRMA chow, Hope Farms, Woerden, The Netherlands) and water ad libitum.
(§3) Treatment. Animals were divided at random into groups of 8. […] Ebselen was dissolved in f a mixture of dimethylsulfoxide/polyethyleneglycol/physiological saline (1/4/20) and administered i.p. in a volume of 0.6 ml.
Kidney Function. […] Blood samples were obtained from the retroorbital venous plexus in the mice.
(§4) Statistics. Student's test, unpaired, was used to evaluate the significance of differences between experimental groups. The level of significance was set at P < 0.05.

[5] = design: species or system BALB/c mice; conditions: mouse, in vivo
Method: Kidney Function. […] Blood samples were obtained from the retroorbital venous plexus in the mice. Serum creatinine and BUN were measured daily in pilot studies (data not shown) and in more extensive studies at the time of maximally observed toxicity : Day 4.
Liver Function. […] Control groups were treated with ebselen or the vehicle.

[6] = test system: MPC 11 tumor cells; experiment: Nephrotoxicity and antitumor activity in mice inoculated with MPC 11 tumor cells; assay type: in vivo, BALB/c mice; conditions: for T/C: T/C=MST treated/ MST control
Text: (§5) Tumors. MPC 11 tumor cells were obtained from the institute of Pathology, University of Utrecht, The Netherlands. The MPC 11 tumor originated as a plasmacytoma, and was originally obtained from Dr. D. Catty, Birmingham, United Kingdom. The tumor cells were maintained by weekly passages in BALB/c mice. Freshly harvested ascitic cells were used in the experiments. Cells were counted with a hemocytometer. Transplantable Prima mammary tumor cells were obtained from the Radiobiological Institute TNO, Rijswijk, The Netherlands. The Prima tumor originated as a mammary carcinoma, induced by forced breeding in BALB/c mice bearing murine mammary tumor virus. The Prima tumor cell-line was cultured in vitro in standard Dulbecco's modification of Minimal Essential Medium (Gibco, Paisley, United Kingdom), supplemented with L-glutamine (500 mg/l), 2-mercapto-ethanol (60 umol/l) and 10% fetal calf serum (Flow Laboratories, Zwanenburg, The Netherlands).
as §2, §3
Evaluation of Antitumor Activity. […] Control groups were treated with ebselen or the vehicle. Mice were examined daily for occurrence of tumors. The experiments were terminated on Day 42 and median survival times (MSTs) were calculated.
as §4

[7] = test system: Prima breast tumor cells; experiment: Nephrotoxicity and antitumor activity in mice inoculated with Prima breast tumor cells; assay type: in vivo, BALB/c mice; conditions: for T/C Day 15: T/C = mean tumor weight treated/control mice; for Incidence of tumors Day 8: by palpation
Text: as §5, §2, §3
Control groups were treated with ebselen or the vehicle. The occurrance of tumors was examined daily by palpation. The experiments were terminated on Day 15 when the tumors were excised and weighed.
as §4

[8] = Histology of kidneys and retroperitoneal ganglionic tissue; assay type: in vivo, BALB/c mice; conditions: cisplatin alone versus cisplatin and ebselen given 1 h before
Method: Histology. Mice were sacrificed four days after treatment with cisplatin alone or Ebselen and cisplatin. Control groups were treated with Ebselen alone or the vehicle. Kidneys and livers were removed and processed for light microscopy. Sections of 6 um thickness were cut and stained in hematoxylin : eosin. All slides were examined without prior knowledge of the treatment given to the animal from which the specimen under investigation was taken.

[9] = Cisplatin 11.5 mg/kg alone, n=8

With `O=c1c2ccccc2[se]n1-c1ccccc1` [Ebselen, 2-phenyl-1,2-benzisoselenazol-3(2H)-one] the LD0 [1] was over 1000 mg/kg body weight, the LD0 [2] was over 1000 mg/kg body weight and the “Cell viability versus cells not pre-exposed (time course)” value ([3]; 10 uM Ebselen 1 h, then 0.4 mM cisplatin 1 h, whole period up till 72 h) was “significantly higher”. For the same molecule, the “Ebselen concentration of highest protection” value ([3]; pre-incubation 1 h before cisplatin, concentration-dependent) was 15 µM, the “Protection from cisplatin-induced decrease in viability” value ([3]; pre-incubation with Ebselen 5-15 uM for 1 h, then 0.2 or 0.4 mM cisplatin 1 h, t = 72 h) was “protected the cells from a decrease in viability” and the “Protection from cisplatin-induced decrease in viability” value ([3]; pre-incubation with ebselen, cisplatin 0.8 mM for 1 h) was “could not protect the cells against the decrease in viability”. The “Effect on cisplatin-induced increase of BUN and serum creatinine” value ([4]; Ebselen 1 h before cisplatin 11.5 to 19.0 mg/kg) was “prevented the increase in levels of BUN and serum creatinine at all cisplatin doses tested with exception of the highest dose”, the “Ebselen dose of maximal protection against cisplatin-induced nephrotoxicity” value ([4]; cisplatin 14.5 mg/kg, ebselen i.p. 1 h before) was 10.0 mg/kg and the “Effect on cisplatin-induced increase of BUN and serum creatinine” value ([4]; ebselen 1 h after cisplatin) was “a protective effect against cisplatin-induced elevations of the levels of BUN and serum creatinine was also observed, but less marked”. For the same molecule, the “Functional liver- or kidney-damage” value [5] was “did not cause functional liver- or kidney-damage”, the T/C ([6]; Ebselen 10.0 mg/kg alone) was 106% and the “Incidence of tumors Day 7” value ([6]; Ebselen 10.0 mg/kg alone, n=8) was 100%. The MST ([6]; Ebselen 10.0 mg/kg alone, n=8) was 17 ± 2 days, the “Survival Day 7” value ([6]; Ebselen 10.0 mg/kg alone, n=8) was 100% and the “Influence on the antitumor activity of cisplatin” value ([6]; MPC 11 plasmacytoma, ebselen i.p. 1 h prior to cisplatin) was “did not reduce the antitumor activity of cisplatin”. For the same molecule, the “MST versus vehicle control” value ([6]; ebselen alone) was “identical to that of the control group”, the “Influence on the antitumor activity of cisplatin” value ([7]; Ebselen 10 mg/kg 1 h before cisplatin) was “did not reduce the antitumor activity of cisplatin” and the “Efficacy against the Prima tumor” value ([7]; Ebselen 10 mg/kg alone) was “not effective”. The “T/C Day 15” value ([7]; Ebselen 10.0 mg/kg alone) was 100%, the “Incidence of tumors Day 8” value ([7]; Ebselen 10.0 mg/kg alone) was 100% and the “Mean tumor weight Day 15” value ([7]; Ebselen 10.0 mg/kg alone, n=8) was 1.5 ± 0.4 g. For the same molecule, the “Survival Day 8” value ([7]; Ebselen 10.0 mg/kg alone, n=8) was 100%.

With `N.N.[Cl][Pt][Cl]` [Cisplatin] the “Time at which decrease in cell viability was first observed” value ([3]; cisplatin 0.4 mM for 1 h, time after termination of the incubation) was 24 h, the “Damage to retroperitoneal ganglionic cells” value [8] was “more pronounced” and the T/C ([6]; Cisplatin 4.0 mg/kg alone) was 150%. For the same molecule, the “Incidence of tumors Day 7” value ([6]; Cisplatin 4.0 mg/kg alone, n=8) was 100%, the MST ([6]; Cisplatin 4.0 mg/kg alone, n=8) was 24 ± 4 days and the T/C ([6]; Cisplatin 6.5 mg/kg alone) was 181%. The “Incidence of tumors Day 7” value ([6]; Cisplatin 6.5 mg/kg alone, n=8) was 100%, the MST ([6]; Cisplatin 6.5 mg/kg alone, n=8) was 29 ± 4 days and the T/C ([6]; Cisplatin 9.0 mg/kg alone) was over 300%. For the same molecule, the “Incidence of tumors Day 7” value ([6]; Cisplatin 9.0 mg/kg alone, n=8) was 0%, the MST ([6]; Cisplatin 9.0 mg/kg alone, n=8) was over 30 days and the T/C ([6]; Cisplatin 11.5 mg/kg alone) was over 300%. The “Incidence of tumors Day 7” value [6, 9] was 0%, the MST [6, 9] was over 48 days and the “Incidence of tumors Day 7” value ([6]; Cisplatin 14.5 mg/kg alone, n=8) was 0%. The “T/C Day 15” value ([7]; Cisplatin 6.5 mg/kg alone) was 93%, the “Incidence of tumors Day 8” value ([7]; Cisplatin 6.5 mg/kg alone) was 100% and the “Mean tumor weight Day 15” value ([7]; Cisplatin 6.5 mg/kg alone, n=8) was 1.4 ± 0.2 g. For the same molecule, the “T/C Day 15” value ([7]; Cisplatin 9.0 mg/kg alone) was 47%, the “Incidence of tumors Day 8” value ([7]; Cisplatin 9.0 mg/kg alone) was 0% and the “Mean tumor weight Day 15” value ([7]; Cisplatin 9.0 mg/kg alone, n=8) was 0.7 ± 0.4 g. For the same molecule, the “T/C Day 15” value ([7]; Cisplatin 11.5 mg/kg alone) was 28%, the “Incidence of tumors Day 8” value ([7]; Cisplatin 11.5 mg/kg alone) was 0% and the “Mean tumor weight Day 15” value [7, 9] was 0.42 ± 0.08 g. For the same molecule, the “T/C Day 15” value ([7]; Cisplatin 14.5 mg/kg alone) was 7%, the “Incidence of tumors Day 8” value ([7]; Cisplatin 14.5 mg/kg alone) was 0% and the “Efficacy against the Prima mammary tumor” value ([7]; cisplatin 9.0 and 11.5 mg/kg) was “effective”. For the same molecule, the “Mice with tumors as assessed by palpation on Day 7” value ([7]; cisplatin […] alone, n=8) was “None”.
